# Test results taken from ChEMBL document CHEMBL3351387, “Bioisosteric replacement of an acylureido moiety attached to an indolin-2-one scaffold with a malonamido or a 2/4-pyridinoylamido moiety produces a selectively potent Aurora-B inhibitor” (Eur J Med Chem, 2014).
# How the values were obtained:
# Aurora kinase A = target: T1, Aurora kinase A (Homo sapiens, UniProt O14965); assay: Inhibition of Aurora A (unknown origin) using H-LRRASLG substrate by radioisotope-based P81 filter-binding assay
# T1 sequence (O14965 whole entry): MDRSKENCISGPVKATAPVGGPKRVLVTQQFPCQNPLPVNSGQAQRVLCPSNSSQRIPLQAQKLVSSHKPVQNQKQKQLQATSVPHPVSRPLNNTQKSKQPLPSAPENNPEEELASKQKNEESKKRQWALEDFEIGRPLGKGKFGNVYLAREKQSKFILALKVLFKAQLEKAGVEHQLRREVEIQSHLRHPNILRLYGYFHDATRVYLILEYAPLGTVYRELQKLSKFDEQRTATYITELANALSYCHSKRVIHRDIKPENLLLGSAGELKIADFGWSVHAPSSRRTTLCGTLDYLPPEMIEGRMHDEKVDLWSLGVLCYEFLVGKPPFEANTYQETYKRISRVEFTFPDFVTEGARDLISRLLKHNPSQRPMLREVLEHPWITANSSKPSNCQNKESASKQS
# [1] = target: Platelet-derived growth factor receptor alpha (Homo sapiens, UniProt P16234); assay: Inhibition of PDGFRalpha (unknown origin) using poly[Glu:Tyr] (4:1) substrate by radioisotope-based P81 filter-binding assay
# Sequence of Platelet-derived growth factor receptor alpha (P16234 whole entry): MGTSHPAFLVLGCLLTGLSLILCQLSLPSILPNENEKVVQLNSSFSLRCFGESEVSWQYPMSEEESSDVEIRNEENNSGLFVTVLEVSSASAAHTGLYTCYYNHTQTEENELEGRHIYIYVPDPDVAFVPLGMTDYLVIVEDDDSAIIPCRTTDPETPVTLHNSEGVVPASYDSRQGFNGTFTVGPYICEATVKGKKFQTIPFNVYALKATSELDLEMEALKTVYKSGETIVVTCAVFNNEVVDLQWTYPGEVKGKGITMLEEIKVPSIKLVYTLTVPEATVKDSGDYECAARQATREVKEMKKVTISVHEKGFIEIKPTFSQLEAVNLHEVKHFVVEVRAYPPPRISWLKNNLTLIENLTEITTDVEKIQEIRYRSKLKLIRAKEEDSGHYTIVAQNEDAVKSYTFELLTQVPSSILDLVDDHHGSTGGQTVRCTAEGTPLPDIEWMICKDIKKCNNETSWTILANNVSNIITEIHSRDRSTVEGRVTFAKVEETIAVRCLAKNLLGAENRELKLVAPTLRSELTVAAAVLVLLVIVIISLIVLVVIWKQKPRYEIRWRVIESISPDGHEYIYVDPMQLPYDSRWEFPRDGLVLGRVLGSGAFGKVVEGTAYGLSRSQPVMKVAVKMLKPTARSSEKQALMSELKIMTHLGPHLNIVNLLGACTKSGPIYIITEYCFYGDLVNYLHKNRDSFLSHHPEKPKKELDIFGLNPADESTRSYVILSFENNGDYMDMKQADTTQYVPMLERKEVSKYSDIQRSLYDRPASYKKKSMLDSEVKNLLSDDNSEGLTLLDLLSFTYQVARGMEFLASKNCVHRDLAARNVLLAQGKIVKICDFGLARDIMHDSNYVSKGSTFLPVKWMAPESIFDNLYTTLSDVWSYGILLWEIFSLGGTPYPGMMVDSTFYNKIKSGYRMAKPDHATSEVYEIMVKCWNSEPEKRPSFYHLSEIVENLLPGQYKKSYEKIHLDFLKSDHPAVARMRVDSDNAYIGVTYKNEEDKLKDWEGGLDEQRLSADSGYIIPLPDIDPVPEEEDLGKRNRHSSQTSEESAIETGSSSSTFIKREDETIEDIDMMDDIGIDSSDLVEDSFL
# A549 [2] = assay: Cytotoxicity against human A549 cells by SRB assay; type: cell-based
# Aurora kinase C = target: T2, Aurora kinase C (Homo sapiens, UniProt Q9UQB9); assay: Inhibition of Aurora C (unknown origin) using H-LRRASLG substrate by radioisotope-based P81 filter-binding assay
# T2 sequence (Q9UQB9 whole entry): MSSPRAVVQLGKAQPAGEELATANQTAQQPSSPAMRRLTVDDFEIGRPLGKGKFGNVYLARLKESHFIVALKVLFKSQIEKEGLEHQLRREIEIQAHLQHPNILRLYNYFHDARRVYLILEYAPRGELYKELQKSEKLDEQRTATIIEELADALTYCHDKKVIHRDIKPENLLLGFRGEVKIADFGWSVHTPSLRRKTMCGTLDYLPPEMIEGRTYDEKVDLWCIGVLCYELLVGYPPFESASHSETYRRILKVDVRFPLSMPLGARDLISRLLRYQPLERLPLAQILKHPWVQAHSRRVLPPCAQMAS
# [3] = target: Vascular endothelial growth factor receptor 2 (Homo sapiens, UniProt P35968); assay: Inhibition of VEGFR2 (unknown origin) using poly[Glu:Tyr] substrate by radioisotope-based P81 filter-binding assay
# [4] = target: T3, Receptor-type tyrosine-protein kinase FLT3 (Homo sapiens, UniProt P36888); assay: Inhibition of Flt3 (unknown origin) using EAIYAAPFAKKK substrate by radioisotope-based P81 filter-binding assay
# T3 sequence (P36888 whole entry): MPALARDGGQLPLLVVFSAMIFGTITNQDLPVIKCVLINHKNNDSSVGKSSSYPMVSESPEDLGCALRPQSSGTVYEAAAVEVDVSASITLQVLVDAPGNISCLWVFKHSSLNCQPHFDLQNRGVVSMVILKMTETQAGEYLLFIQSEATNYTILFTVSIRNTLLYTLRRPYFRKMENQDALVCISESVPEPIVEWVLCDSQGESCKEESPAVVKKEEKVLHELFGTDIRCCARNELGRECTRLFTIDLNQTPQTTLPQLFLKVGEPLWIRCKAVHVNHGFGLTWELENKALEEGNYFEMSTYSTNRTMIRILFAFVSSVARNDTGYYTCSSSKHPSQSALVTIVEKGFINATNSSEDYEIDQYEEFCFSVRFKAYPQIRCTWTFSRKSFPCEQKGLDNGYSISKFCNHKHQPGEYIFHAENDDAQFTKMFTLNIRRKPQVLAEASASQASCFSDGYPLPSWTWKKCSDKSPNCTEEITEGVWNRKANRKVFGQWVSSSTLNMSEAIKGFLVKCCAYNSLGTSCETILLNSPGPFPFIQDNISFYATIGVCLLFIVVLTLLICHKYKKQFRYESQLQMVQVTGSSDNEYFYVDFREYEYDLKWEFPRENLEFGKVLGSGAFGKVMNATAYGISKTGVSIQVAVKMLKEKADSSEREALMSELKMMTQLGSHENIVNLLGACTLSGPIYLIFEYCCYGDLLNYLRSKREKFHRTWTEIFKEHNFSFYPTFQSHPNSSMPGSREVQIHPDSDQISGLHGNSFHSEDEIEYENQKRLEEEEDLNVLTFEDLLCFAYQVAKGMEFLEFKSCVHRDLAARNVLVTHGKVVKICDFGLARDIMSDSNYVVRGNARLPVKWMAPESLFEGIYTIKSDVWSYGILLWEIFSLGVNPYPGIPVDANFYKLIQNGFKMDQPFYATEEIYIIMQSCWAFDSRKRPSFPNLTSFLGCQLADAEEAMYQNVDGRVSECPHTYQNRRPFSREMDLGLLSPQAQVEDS
# [5] = target: Platelet-derived growth factor receptor beta (Homo sapiens, UniProt P09619); assay: Inhibition of PDGFRbeta (unknown origin) using poly[Glu:Tyr] (4:1) substrate by radioisotope-based P81 filter-binding assay
# Sequence of Platelet-derived growth factor receptor beta (P09619 whole entry): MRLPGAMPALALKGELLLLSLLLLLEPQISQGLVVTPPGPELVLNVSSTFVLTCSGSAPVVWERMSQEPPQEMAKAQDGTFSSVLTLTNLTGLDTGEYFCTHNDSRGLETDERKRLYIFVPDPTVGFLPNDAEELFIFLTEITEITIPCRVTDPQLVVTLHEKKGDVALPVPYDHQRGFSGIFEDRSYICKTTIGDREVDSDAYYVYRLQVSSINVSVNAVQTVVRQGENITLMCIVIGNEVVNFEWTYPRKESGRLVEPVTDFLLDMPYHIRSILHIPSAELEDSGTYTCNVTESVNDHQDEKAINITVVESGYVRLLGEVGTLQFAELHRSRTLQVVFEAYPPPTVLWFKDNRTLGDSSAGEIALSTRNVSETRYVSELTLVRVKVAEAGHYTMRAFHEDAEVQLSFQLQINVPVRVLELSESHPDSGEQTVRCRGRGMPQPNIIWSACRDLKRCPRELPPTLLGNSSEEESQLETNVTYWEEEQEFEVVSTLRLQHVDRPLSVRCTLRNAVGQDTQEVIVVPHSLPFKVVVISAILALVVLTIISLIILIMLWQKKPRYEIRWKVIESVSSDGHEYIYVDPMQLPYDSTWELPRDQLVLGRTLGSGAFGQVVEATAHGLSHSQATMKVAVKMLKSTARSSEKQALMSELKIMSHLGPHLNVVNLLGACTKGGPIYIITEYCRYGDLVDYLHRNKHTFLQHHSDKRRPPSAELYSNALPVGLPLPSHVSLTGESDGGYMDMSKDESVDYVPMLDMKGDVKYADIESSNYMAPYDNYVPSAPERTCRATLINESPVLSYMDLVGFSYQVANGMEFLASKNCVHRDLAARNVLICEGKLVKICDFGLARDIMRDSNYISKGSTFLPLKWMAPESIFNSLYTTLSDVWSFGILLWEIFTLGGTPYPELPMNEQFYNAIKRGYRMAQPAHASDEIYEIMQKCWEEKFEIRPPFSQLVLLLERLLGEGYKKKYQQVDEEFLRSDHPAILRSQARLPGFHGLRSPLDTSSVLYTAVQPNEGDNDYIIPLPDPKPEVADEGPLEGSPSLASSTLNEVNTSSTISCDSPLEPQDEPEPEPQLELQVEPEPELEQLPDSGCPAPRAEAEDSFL
# HepG2 = assay: Cytotoxicity against human HepG2 cells by SRB assay; type: cell-based
# Aurora kinase B = Aurora kinase B (Homo sapiens, UniProt Q96GD4); assay: Inhibition of Aurora B (unknown origin) using H-LRRASLG substrate by radioisotope-based P81 filter-binding assay
# Sequence of Aurora kinase B (Q96GD4 whole entry): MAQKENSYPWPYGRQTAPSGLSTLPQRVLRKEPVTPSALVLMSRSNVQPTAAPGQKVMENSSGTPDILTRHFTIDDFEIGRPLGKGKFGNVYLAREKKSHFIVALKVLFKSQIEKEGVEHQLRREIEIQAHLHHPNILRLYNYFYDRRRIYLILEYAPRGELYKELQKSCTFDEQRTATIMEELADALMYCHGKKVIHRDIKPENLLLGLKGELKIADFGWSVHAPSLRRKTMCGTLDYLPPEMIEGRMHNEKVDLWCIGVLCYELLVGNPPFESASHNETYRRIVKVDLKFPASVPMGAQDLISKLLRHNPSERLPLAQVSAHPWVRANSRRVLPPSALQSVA
# [6] = target: Hepatocyte growth factor receptor (Homo sapiens, UniProt P08581); assay: Inhibition of c-Met (unknown origin) using KKKSPGEYVNIEFG substrate by radioisotope-based P81 filter-binding assay
# Sequence of Hepatocyte growth factor receptor (P08581 whole entry): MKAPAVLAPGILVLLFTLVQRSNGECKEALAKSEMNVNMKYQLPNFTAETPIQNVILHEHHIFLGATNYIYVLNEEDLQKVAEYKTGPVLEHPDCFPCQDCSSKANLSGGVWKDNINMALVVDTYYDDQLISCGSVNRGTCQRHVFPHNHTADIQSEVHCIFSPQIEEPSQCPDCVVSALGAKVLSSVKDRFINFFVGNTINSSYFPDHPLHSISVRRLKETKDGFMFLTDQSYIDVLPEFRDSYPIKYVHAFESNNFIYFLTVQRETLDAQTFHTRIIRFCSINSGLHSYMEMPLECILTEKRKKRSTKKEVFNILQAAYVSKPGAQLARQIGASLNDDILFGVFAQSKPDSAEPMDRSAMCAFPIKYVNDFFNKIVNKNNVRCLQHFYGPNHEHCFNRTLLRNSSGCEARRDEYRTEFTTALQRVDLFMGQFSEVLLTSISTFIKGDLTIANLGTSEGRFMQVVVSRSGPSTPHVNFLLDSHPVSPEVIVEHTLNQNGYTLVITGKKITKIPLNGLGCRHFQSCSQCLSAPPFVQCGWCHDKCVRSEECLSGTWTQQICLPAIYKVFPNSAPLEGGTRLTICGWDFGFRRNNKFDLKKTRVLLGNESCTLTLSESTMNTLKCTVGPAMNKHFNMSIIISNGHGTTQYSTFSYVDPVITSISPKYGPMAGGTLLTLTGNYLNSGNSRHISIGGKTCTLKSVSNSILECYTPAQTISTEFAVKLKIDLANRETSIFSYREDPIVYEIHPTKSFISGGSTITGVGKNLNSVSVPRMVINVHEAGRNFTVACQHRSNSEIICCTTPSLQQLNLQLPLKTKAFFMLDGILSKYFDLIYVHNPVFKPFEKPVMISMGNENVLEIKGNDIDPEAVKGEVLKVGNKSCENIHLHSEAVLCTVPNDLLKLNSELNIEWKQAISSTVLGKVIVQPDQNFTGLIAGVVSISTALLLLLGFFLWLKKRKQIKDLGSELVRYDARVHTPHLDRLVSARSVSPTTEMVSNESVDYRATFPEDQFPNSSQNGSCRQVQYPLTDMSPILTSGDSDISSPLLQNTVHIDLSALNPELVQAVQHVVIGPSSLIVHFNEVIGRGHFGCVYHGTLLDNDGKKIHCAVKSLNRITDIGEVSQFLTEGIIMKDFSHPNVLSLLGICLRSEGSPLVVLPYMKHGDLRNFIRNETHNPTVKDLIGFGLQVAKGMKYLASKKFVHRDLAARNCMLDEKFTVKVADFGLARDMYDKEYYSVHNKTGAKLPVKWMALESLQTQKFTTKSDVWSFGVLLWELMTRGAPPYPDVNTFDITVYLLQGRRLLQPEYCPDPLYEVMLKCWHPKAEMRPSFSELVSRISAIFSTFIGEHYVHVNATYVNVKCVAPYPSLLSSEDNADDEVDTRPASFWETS
# A549 [7] = assay: Anti-invasive activity against human A549 cells assessed as inhibition of cell invasion by transwell invasion assay
# A549 [8] = assay: Antimigratory activity against human A549 cells assessed as inhibition of cell migration after 8 to 16 hrs by scratch wound model assay
Structure (SMILES),IC50 (A549 [2]),IC50 (HepG2),other results
O=C(CC(=O)Nc1ccc2c(c1)NC(=O)/C2=C\c1ccc[nH]1)Nc1ccc(F)cc1,700 nM,1800 nM,IC50 (Aurora kinase A): 552 nM; IC50 [1]: 7.2 nM; IC50 (Aurora kinase C): 67.2 nM; IC50 [3]: 1770 nM; IC50 [4]: 11 nM; IC50 [5]: 86.9 nM
COc1ccc(NC(=O)CC(=O)Nc2ccc3c(c2)NC(=O)/C3=C\c2ccc[nH]2)cc1,3800 nM,2800 nM,IC50 [4]: 16.6 nM; IC50 [5]: 177 nM
COc1ccc(NC(=O)CC(=O)Nc2ccc3c(c2)NC(=O)/C3=C\c2[nH]c(C)c(C(=O)O)c2C)cc1,5400 nM,7800 nM,IC50 (Aurora kinase A): 203 nM; IC50 [1]: < 1 nM; IC50 (Aurora kinase B): 5.9 nM; IC50 [6]: 31.1 nM; IC50 (Aurora kinase C): 154 nM; IC50 [4]: 6.4 nM; IC50 [5]: 8.1 nM
COc1ccc(NC(=O)CC(=O)Nc2ccc3c(c2)NC(=O)/C3=C\c2[nH]c(C)c(C(=O)NCCN3CCCC3)c2C)cc1,5400 nM,5100 nM,IC50 [1]: < 1 nM; IC50 (Aurora kinase B): 93 nM; IC50 [6]: 10.6 nM; IC50 [3]: 20.7 nM; IC50 [4]: 2.1 nM; IC50 [5]: 1.54 nM
O=C1Nc2cc(NC(=O)C3(C(=O)Nc4ccc(F)cc4)CC3)ccc2/C1=C/c1ccc[nH]1,900 nM,1000 nM,IC50 (Aurora kinase B): 253 nM
COc1ccc(NC(=O)C2(C(=O)Nc3ccc4c(c3)NC(=O)/C4=C\c3ccc[nH]3)CC2)cc1,5900 nM,3900 nM,–
O=C1Nc2cccc(NC(=O)c3cccn(-c4ccc(F)cc4)c3=O)c2/C1=C/c1ccc[nH]1,4800 nM,4600 nM,–
O=C1Nc2ccc(NC(=O)c3cccn(-c4ccc(F)cc4)c3=O)cc2/C1=C/c1ccc[nH]1,5400 nM,5400 nM,–
O=C1Nc2c(NC(=O)c3cccn(-c4ccc(F)cc4)c3=O)cccc2/C1=C/c1ccc[nH]1,4500 nM,3900 nM,–
O=C1Nc2cc(NC(=O)c3cccn(-c4ccc(F)cc4)c3=O)ccc2/C1=C/c1ccc[nH]1,700 nM,900 nM,IC50 (A549 [7]): > 10000 nM; IC50 (A549 [8]): 7300 nM
COc1ccc(-n2cccc(C(=O)Nc3ccc4c(c3)NC(=O)/C4=C\c3ccc[nH]3)c2=O)cc1,3300 nM,5600 nM,–
O=C1Nc2cc(NC(=O)c3cccn(-c4ccccc4)c3=O)ccc2/C1=C/c1ccc[nH]1,4700 nM,5800 nM,–
Cc1ccc(-n2cccc(C(=O)Nc3ccc4c(c3)NC(=O)/C4=C\c3ccc[nH]3)c2=O)cc1,1600 nM,4200 nM,–
O=C1Nc2cc(NC(=O)c3cccn(-c4ccc(Cl)cc4)c3=O)ccc2/C1=C/c1ccc[nH]1,4900 nM,6700 nM,–
O=C1Nc2cc(NC(=O)c3cccn(-c4ccc(C(F)(F)F)cc4)c3=O)ccc2/C1=C/c1ccc[nH]1,3700 nM,3100 nM,–
O=C1Nc2cc(NC(=O)c3cccn(-c4cccc(Cl)c4)c3=O)ccc2/C1=C/c1ccc[nH]1,1500 nM,4900 nM,–
Cn1cccc(C(=O)Nc2ccc3c(c2)NC(=O)/C3=C\c2ccc[nH]2)c1=O,5900 nM,7000 nM,–

Structure (SMILES),IC50 (A549 [2]),IC50 (HepG2),other results
O=C1Nc2cc(NC(=O)c3cccn(CCO)c3=O)ccc2/C1=C/c1ccc[nH]1,4500 nM,3900 nM,–
Cc1[nH]c(/C=C2\C(=O)Nc3cc(NC(=O)c4cccn(-c5ccc(F)cc5)c4=O)ccc32)c(C)c1C(=O)O,6300 nM,6100 nM,IC50 (A549 [7]): > 10000 nM; IC50 (A549 [8]): 7900 nM
Cc1[nH]c(/C=C2\C(=O)Nc3cc(NC(=O)c4cccn(C)c4=O)ccc32)c(C)c1C(=O)O,6600 nM,8100 nM,–
O=C1Nc2cc(NC(=O)c3c[nH]cc(-c4ccc(F)cc4)c3=O)ccc2/C1=C/c1ccc[nH]1,500 nM,1400 nM,IC50 (A549 [7]): 7800 nM; IC50 (A549 [8]): 6600 nM
COc1ccc(-c2c[nH]cc(C(=O)Nc3ccc4c(c3)NC(=O)/C4=C\c3ccc[nH]3)c2=O)cc1,600 nM,800 nM,–
O=C1Nc2cc(NC(=O)c3c[nH]cc(-c4ccccc4)c3=O)ccc2/C1=C/c1ccc[nH]1,500 nM,1100 nM,IC50 (Aurora kinase B): 33.1 nM
Cc1ccc(-c2c[nH]cc(C(=O)Nc3ccc4c(c3)NC(=O)/C4=C\c3ccc[nH]3)c2=O)cc1,500 nM,700 nM,–
O=C1Nc2cc(NC(=O)c3c[nH]cc(-c4ccc(Cl)cc4)c3=O)ccc2/C1=C/c1ccc[nH]1,< 100 nM,700 nM,–
O=C1Nc2cc(NC(=O)c3c[nH]cc(-c4ccc(C(F)(F)F)cc4)c3=O)ccc2/C1=C/c1ccc[nH]1,500 nM,700 nM,–
O=C1Nc2cc(NC(=O)c3c[nH]cc(-c4cccc(Cl)c4)c3=O)ccc2/C1=C/c1ccc[nH]1,500 nM,600 nM,–
Cc1c[nH]cc(C(=O)Nc2ccc3c(c2)NC(=O)/C3=C\c2ccc[nH]2)c1=O,5500 nM,3100 nM,–
COc1ccc(-c2c[nH]cc(C(=O)Nc3ccc4c(c3)NC(=O)/C4=C\c3[nH]c(C)c(C(=O)O)c3C)c2=O)cc1,> 10000 nM,> 10000 nM,–
Cc1[nH]c(/C=C2\C(=O)Nc3cc(NC(=O)c4c[nH]cc(-c5ccc(F)cc5)c4=O)ccc32)c(C)c1C(=O)N1CCN(C)CC1,600 nM,700 nM,–
Cc1[nH]c(/C=C2\C(=O)Nc3cc(NC(=O)c4c[nH]cc(-c5ccc(F)cc5)c4=O)ccc32)c(C)c1CC(=O)N1CCN(C)CC1,600 nM,700 nM,–
Cc1[nH]c(/C=C2\C(=O)Nc3cc(NC(=O)c4c[nH]cc(-c5ccc(F)cc5)c4=O)ccc32)c(C)c1C(=O)N1CCOCC1,5800 nM,6700 nM,–
Cc1[nH]c(/C=C2\C(=O)Nc3cc(NC(=O)c4c[nH]cc(-c5ccc(F)cc5)c4=O)ccc32)c(C)c1CC(=O)N1CCOCC1,5200 nM,6700 nM,–
CCN(CCO)CCCOc1ccc2c(Nc3cc(CC(=O)Nc4cccc(F)c4)[nH]n3)ncnc2c1 [DEFOSBARASERTIB],100 nM,100 nM,IC50 (A549 [7]): 5400 nM; IC50 (A549 [8]): 8300 nM
